The source of these data is BindingDB's records for doi:10.1016/j.bioorg.2004.06.008 (BiomolÉCules Et Cibles Cellulaires Tumorales, 2004).

The structures appear in SMILES notation.

The target of the assay is T1, Aromatase [1-48] (Homo sapiens, UniProt P11511).
T1 construct: 1-48
T1 sequence (P11511 whole entry): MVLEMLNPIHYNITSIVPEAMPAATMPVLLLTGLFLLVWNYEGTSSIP
The experiment in a line: Biological Assay. The method, then: The inhibitory activities of the compounds toward aromatase were determined in vitro using human placental microsomes and [1,2,6,7-3H]-androstenedione.
One may read the IC50 as the concentration that inhibits the measured activity by half. The low end stands for inhibition by little substance, the high end for a need for much substance. The compound `COc1ccc2c(c1)OC(c1ccc(Cl)cc1)CC2n1ccnc1` (trans isomer) [2,4-Trans-4'-chloro-4-imidazolyl-7-methoxyflavan, 3b] registered an IC50 of 200 nM.

As to `COc1ccc2c(c1)OC(c1cccc(O)c1)CC2n1ccnc1` (stereo not drawn) [2,4-Trans-3'-hydroxy-4-imidazolyl-7-methoxyflavan, 3a], 130 nM corresponded to half-maximal inhibition (IC50).

`Oc1ccc(C2CC(n3ccnc3)c3ccc(O)cc3O2)cc1` (stereo not drawn) [2,4-Trans-4',7-dihydroxy-4-imidazolyl-7-methoxyflavan, 3e] had a half-inhibitory concentration (IC50) of 77 nM.

On to `COc1ccc2c(c1)OC(c1ccc(C#N)cc1)CC2n1ccnc1` (stereo not drawn) [2,4-Trans-4'-cyano-4-imidazolyl-7-methoxyflavan, 3c], for which the half-inhibitory concentration (IC50) was found to be 133 nM.

`COc1ccc2c(c1)OC(c1ccc(O)cc1)CC2n1ccnc1` (stereo not drawn) [2,4-Trans-4'-hydroxy-4-imidazolyl-7-methoxyflavan, 3d]: 40 nM corresponded to half-maximal inhibition (IC50).
